Measurements as given in ChEMBL document CHEMBL5576134, “Targeting Pancreatic Cancer with Novel Nicolaioidesin C Derivatives: Molecular Mechanism, In Vitro, and In Vivo Evaluations” (J Med Chem, 2024).
The source made the active and inactive calls. No cut-off for these calls is given here.

Columns and labels:
Mus musculus [1] = assay: In-vivo modulation of PI3K/AKT/mTOR signalling pathway in human MIA PaCa-2 cells xenografted in BALB/c/Nu/Nu mouse assessed as downregulation of TRB3 level at 60 mg/kg, ip administered 5 times a week for 4 weeks in presence of gemcitabine by Western blot analysis; assay type: functional, organism-based
[2] = Selectivity index, ratio of IC50 for preferential cytotoxicity against human MIA PaCa-2 cells in DMEM to PC50 for preferential cytotoxicity against human MIA PaCa-2 cells in nutrient-deprived medium; assay type: functional
[3] = Modulation of PI3K/AKT/mTOR signalling pathway in human MIA PaCa-2 cells in DMEM medium assessed as decrease in mTOR phosphorylation at 5 uM measured for 6 hrs by Western blot analysis; assay type: cell-based; settings: filed as modulator
MIA PaCa-2 [4] = assay: Antimetastatic activity in human MIA PaCa-2 cells in DMEM media assessed as reduction in colony area at 5 uM incubated for 24 hrs by crystal violet staining-based assay (reference value: 37%); assay type: functional; design: scale not given: the % may be the effect or the level left
PANC-1 [5] = assay: Preferential cytotoxicity against human PANC-1 cells in nutrient-deprived medium measured after 24 hrs by WST-8 cell counting analysis; assay type: functional
MIA PaCa-2 [6] = assay: Induction of endoplasmic reticulum (ER) stress in human MIA PaCa-2 cells assessed as reduction in GRP78 expression at 5 uM measured after 6 hrs by Western blot analysis; assay type: functional, cell-based
MIA PaCa-2 [7] = assay: Induction of endoplasmic reticulum (ER) stress in human MIA PaCa-2 cells in NDM medium assessed as change in TRB3 level at 5 uM measured after 6 hrs by Western blot analysis; assay type: functional, cell-based
MIA PaCa-2 [8] = assay: Induction of endoplasmic reticulum (ER) stress in human MIA PaCa-2 cells xenografted in BALB/c/Nu/Nu mouse assessed as downregulation of GRP78 expression in presence of gemcitabine by immunohistochemistry analysis; assay type: functional, cell-based
MIA PaCa-2 [9] = assay: Antimetastatic activity in human MIA PaCa-2 cells in DMEM media assessed as reduction in colony area at 10 uM incubated for 24 hrs by crystal violet staining-based assay; assay type: functional; design: scale not given: the % may be the effect or the level left
PANC-1 [10] = assay: Preferential cytotoxicity against human PANC-1 cells in DMEM measured after 24 hrs by WST-8 cell counting analysis; assay type: functional, cell-based; settings: PANC-1, 24 h
[11] = Toxicity in BALB/c/Nu/Nu mouse xenografted with human MIA PaCa-2 cells assessed as change in body weight at 60 mg/kg, ip administered 5 times a week for 4 weeks in presence of gemcitabine; assay type: organism-based; settings: in vivo, 672 h
MIA PaCa-2 [12] = assay: Preferential cytotoxicity against human MIA PaCa-2 cells in nutrient-deprived medium assessed as alteration in cell morphology by measuring cell rounding at 0.5 to 1 uM measured after 24 hrs by acridine orange and ethidium bromide dual fluorescent staining based microscopic analysis; assay type: functional; settings: dose 0.5-1 µM
[13] = Selectivity index, ratio of IC50 for preferential cytotoxicity against human PANC-1 cells in DMEM to PC50 for preferential cytotoxicity against human PANC-1 cells in nutrient-deprived medium; assay type: functional
MIA PaCa-2 [14] = assay: Induction of endoplasmic reticulum (ER) stress in human MIA PaCa-2 cells assessed as reduction in CHOP expression measured after 6 hrs by Western blot analysis; assay type: functional, cell-based; settings: dose 5.0 µM
MIA PaCa-2 [15] = assay: Synergistic antitumor activity against human MIA PaCa-2 cells xenografted in BALB/c/Nu/Nu mouse assessed as increase in pleomorphism at 60 mg/kg, ip administered 5 times a week for 4 weeks by H and E staining based analysis; assay type: functional, organism-based
MIA PaCa-2 [16] = assay: Induction of endoplasmic reticulum (ER) stress in human MIA PaCa-2 cells in DMEM medium assessed as change in TRB3 level at 5 uM measured after 6 hrs by Western blot analysis; assay type: functional, cell-based
Mus musculus [17] = assay: In-vivo modulation of PI3K/AKT/mTOR signalling pathway in human MIA PaCa-2 cells xenografted in BALB/c/Nu/Nu mouse assessed as downregulation of mTOR phosphorylation at 60 mg/kg, ip administered 5 times a week for 4 weeks in presence of gemcitabine by Western blot analysis; assay type: functional, organism-based
[18] = Modulation of PI3K/AKT/mTOR signalling pathway in human MIA PaCa-2 cells in DMEM medium assessed as decrease in Akt phosphorylation at 5 uM measured for 6 hrs by Western blot analysis; assay type: cell-based; settings: filed as modulator
MIA PaCa-2 [19] = assay: Antitumor activity against human MIA PaCa-2 cells xenografted in BALB/c/Nu/Nu mouse assessed as reduction in final tumor weight at 20 mg/kg, ip administered 5 times a week for 4 weeks (reference value: […]); assay type: functional
MIA PaCa-2 [20] = assay: Antimetastatic activity in human MIA PaCa-2 cells in DMEM media assessed as reduction in colony area at 20 uM incubated for 24 hrs by crystal violet staining-based assay; assay type: functional; design: scale not given: the % may be the effect or the level left
MIA PaCa-2 [21] = assay: Preferential cytotoxicity against human MIA PaCa-2 cells in nutrient-deprived medium assessed as alteration in cell morphology by measuring membrane blebbing at 0.5 to 1 uM measured after 24 hrs by acridine orange and ethidium bromide dual fluorescent staining based microscopic analysis; assay type: functional; settings: dose 0.5-1 µM
[22] = Modulation of PI3K/AKT/mTOR signalling pathway in human MIA PaCa-2 cells in DMEM medium assessed as downregulation of AKT expression at 1 to 5 uM incubated for 24 hrs in presence of gemcitabine by Western blot analysis; assay type: cell-based; settings: filed as modulator, dose 1-5 µM
MIA PaCa-2 [23] = assay: Preferential cytotoxicity against human MIA PaCa-2 cells in nutrient-deprived medium assessed as alteration in cell morphology by fluorescence intensity measured after 24 hrs by acridine orange and ethidium bromide dual fluorescent staining based microscopic analysis; assay type: functional; settings: dose 0.5-1 µM
[24] = Toxicity in BALB/c/Nu/Nu mouse xenografted with human MIA PaCa-2 cells assessed as change in body weight at 20 mg/kg, ip administered 5 times a week for 4 weeks; assay type: organism-based; settings: in vivo, 672 h
MIA PaCa-2 [25] = assay: Antitumor activity against human MIA PaCa-2 cells xenografted in BALB/c/Nu/Nu mouse assessed as tumor volume at 60 mg/kg, ip administered 5 times a week for 4 weeks and measured on day 32 in presence of gemcitabine (reference value: 1417 mm3); assay type: functional; settings: time 32 day
MIA PaCa-2 [26] = assay: Antitumor activity against human MIA PaCa-2 cells xenografted in BALB/c/Nu/Nu mouse assessed as reduction in number of blood vessels in skin at 60 mg/kg, ip administered 5 times a week for 4 weeks in presence of gemcitabine; assay type: functional, organism-based
MIA PaCa-2 [27] = assay: Induction of endoplasmic reticulum (ER) stress in human MIA PaCa-2 cells assessed as change in TRB3 level at 5 uM measured after 6 hrs by Western blot analysis; assay type: functional, cell-based
MIA PaCa-2 [28] = assay: Preferential cytotoxicity against human MIA PaCa-2 cells in DMEM measured after 24 hrs by WST-8 cell counting analysis; assay type: functional, cell-based; settings: MIA PaCa-2, 24 h
[29] = Modulation of PI3K/AKT/mTOR signalling pathway in human MIA PaCa-2 cells in DMEM medium assessed as downregulation of GRP78 expression incubated for 24 hrs in presence of gemcitabine by Western blot analysis; assay type: cell-based; settings: filed as modulator, dose 1-5 µM
Mus musculus [30] = assay: In-vivo modulation of PI3K/AKT/mTOR signalling pathway in human MIA PaCa-2 cells xenografted in BALB/c/Nu/Nu mouse assessed as downregulation of Akt phosphorylation at 60 mg/kg, ip administered 5 times a week for 4 weeks in presence of gemcitabine by Western blot analysis; assay type: functional, organism-based

CC(C)=CCCC1=CC[C@H](C(=O)c2c(O)cccc2O)[C@@H](c2cccc(F)c2F)C1 (relative stereo)
Activity (Mus musculus [1]): Active | Selectivity Index [2]: 176 | Activity [3]: Active | Activity (MIA PaCa-2 [4]): 14% | PC50 (PANC-1 [5]): 0.23 µM | Activity (MIA PaCa-2 [6]): Active | Activity (MIA PaCa-2 [7]): Active | Activity (MIA PaCa-2 [8]): Active | Activity (MIA PaCa-2 [9]): 91% | IC50 (PANC-1 [10]): 9.2 µM | Activity [11]: Non-Toxic | Activity (MIA PaCa-2 [12]): Active | Selectivity Index [13]: 40.8 | Activity (MIA PaCa-2 [14]): Dose-Dependent Effect | Activity (MIA PaCa-2 [15]): Active | Activity (MIA PaCa-2 [16]): Active | Activity (Mus musculus [17]): Active | Activity [18]: Active | Activity (MIA PaCa-2 [19]): 321 mg | Activity (MIA PaCa-2 [20]): 98% | Activity (MIA PaCa-2 [21]): Active | Activity [22]: Active | Activity (MIA PaCa-2 [23]): Dose-Dependent Effect | Activity [24]: Non-Toxic | Activity (MIA PaCa-2 [25]): 528 mm3 | Activity (MIA PaCa-2 [26]): Active | Activity (MIA PaCa-2 [27]): Active | IC50 (MIA PaCa-2 [28]): 60.2 µM | Activity [29]: Dose-Dependent Effect | Activity (Mus musculus [30]): Active
